Literature values as cited in patent publication US11925768B2, “Method for decolonizing mammalian skin” (AVADIM HEALTH IP, INC., priority 2014, dated 2024).

Conditions: concentrations as low as

concentration producing intense pain in most tissues: about 10 mg/ml
SMILES: O=S1(=O)CCN(CN2CCS(=O)(=O)NC2)CN1 [Taurolidine, taurolidine]
